Reference: patent publication US20150291565A1, “INDOLE COMPOUNDS AND THEIR USE AS ANTIMICROBIALS” (Memorial Sloan-Kettering Cancer Center, priority 2012, published 2015)
Several values for one entry are separate records, joined by “and”; a condition that tells them apart may be missing. Equal entries are not always repeated.

How the values were obtained:
[1] = tested on: methicillin-resistant S. aureus (ATCC 33591); assay: Thigh infection model in neutropenic CD1 mice, MRSA; settings: 100 mg/kg BID SC, 24 hours
[2] = tested on: S. aureus (MRSA) (ATCC33591); assay: Septicemia survival model in neutropenic CD1 mice, MRSA; format: in vivo; settings: 100 mg/kg BID SC
[3] = tested on: S. pneumoniae (ATCC 6303); assay: Thigh infection model in neutropenic CD1 mice, S. pneumoniae; settings: 100 mg/kg BID SC, 24 hours; for Log reduction: vs vehicle, 100 mg/kg

## CN[C@H](CC(C)C)C(=O)N[C@H]1C(=O)N[C@@H](CC(N)=O)C(=O)N[C@H]2C(=O)N[C@H]3C(=O)N[C@H](C(=O)N[C@H](C(=O)O)c4cc(O)cc(O)c4-c4cc3ccc4O)[C@H](O)c3ccc(c(Cl)c3)Oc3cc2cc(c3O[C@@H]2O[C@H](CO)[C@@H](O)[C@H](O)[C@H]2O[C@H]2C[C@](C)(N)[C@H](O)[C@H](C)O2)Oc2ccc(cc2Cl)[C@H]1O [Vancomycin, reference compound]
[1]
  Mean bacterial tissue burden (log10/thigh): 5.0033 log10/thigh
[1]; vs vehicle, 100 mg/kg
  Log reduction: 3.45 Log and 3.4455 Log
[2]
  Percent Survival Day 1: 100%
  Percent Survival Day 2: 100%
  Percent Survival Day 3: 100%
  Percent Survival Day 4: 80%
  Percent Survival Day 5: 80%
  Percent Survival Day 6: 80%
  Percent Survival Day 7: 80%
[3]
  Mean bacterial tissue burden (log10/thigh): 3.4862 log10/thigh
  Log reduction: 5.6265 Log
[3]; listed as vancomycin
  Log reduction: 5.63 Log
